Experimental data: the supplement of paper PMC10307832

Compound: CNC(=O)c1cc(Oc2ccc(NC(=O)Nc3ccc(Cl)c(C(F)(F)F)c3)cc2)ccn1 [Sorafenib]
Experiment: relative viability (nuclei count vs DMSO), 5 days (fraction); higher = more cells survive
Outline: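 A plate was accepted only when its control CV was below 25% and the cells had doubled at least once. Viability is defined from nuclear counts as treated wells divided by vehicle wells, with the median taken across plates. That median covers lung cancer cell lines grown in 1536-well plates, dosed by pinning at five √10-spaced library-drug concentrations, and counted in MetaXpress from 4× Hoechst images after 5 days.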

Cell Line	relative viability (0.08 µM)	relative viability (0.253 µM)	relative viability (2.53 µM)	relative viability (8 µM)
201T	0.975	0.943	1.07	0.918
A-427	0.999	0.902	0.94	0.752
ABC-1	1.07	0.808	–	0.584
BEN	1.08	0.826	1.15	0.823
CAL-12T	1.01	0.882	0.985	0.644
COR-L23	1.04	0.926	0.957	0.781
COR-L 105	1.11	0.867	1.15	0.691
ChaGo-K-1	–	0.915	1	0.867
EKVX	1.05	0.954	0.963	0.952
EMC-BAC-2	1.05	0.786	0.938	0.873
EPLC-272H	1.19	0.842	1.09	0.774
H3255	1.07	0.89	0.99	0.755
HARA	1.17	0.79	1.07	0.767
HCC-15	1.05	0.912	1.05	0.69
HCC-44	0.989	0.886	0.941	0.901
HCC-78	1.13	0.953	1.05	1.05
HCC-366	1	1.02	1	0.999
HCC-827	1.06	0.954	1.02	0.956
HOP-62	0.986	0.858	0.764	0.589
IA-LM	–	0.646	0.563	0.514
LC-2-ad	1.03	0.834	0.939	0.762
LCLC-97TM1	1.16	0.778	–	0.703
LCLC-103H	0.975	0.946	1.13	1.03
LK-2	1.09	0.766	0.848	0.494
LOU-NH91	1.1	0.967	1.17	–

Cell Line	relative viability (0.08 µM)	relative viability (0.253 µM)	relative viability (2.53 µM)	relative viability (8 µM)
LU99A	0.997	0.94	0.777	0.696
LXF-289	1.06	0.97	1.03	0.958
NCI-H23	1	0.875	0.974	0.704
NCI-H322M	1.14	0.918	1.3	1.27
NCI-H358	1.04	1.05	1.01	0.688
NCI-H441	1.05	0.783	0.908	0.584
NCI-H460	1.01	0.918	1	0.654
NCI-H520	0.93	0.823	–	0.75
NCI-H596	0.993	1.03	1.18	0.969
NCI-H647	1.05	0.763	0.853	0.492
NCI-H650	1.08	0.82	0.83	0.78
NCI-H661	–	1.02	0.97	0.713
NCI-H727	1.15	0.768	0.88	0.691
NCI-H838	1.04	0.996	1.17	0.994
NCI-H1355	1.02	0.921	0.958	0.788
NCI-H1395	1.1	0.76	1.02	0.775
NCI-H1437	0.999	0.872	0.945	0.583
NCI-H1563	1.07	0.958	1.02	0.779
NCI-H1650	1.17	0.909	1.31	0.534
NCI-H1651	1.07	0.958	0.985	–
NCI-H1666	0.992	0.913	0.985	0.844
NCI-H1703	0.859	0.46	0.271	0.249
NCI-H1734	–	0.97	0.909	0.618
NCI-H1755	1.04	–	0.973	0.936
NCI-H1792	0.877	0.843	0.892	0.773

Cell Line	relative viability (0.08 µM)	relative viability (0.253 µM)	relative viability (2.53 µM)	relative viability (8 µM)
NCI-H1793	1.06	0.944	1.15	0.596
NCI-H1915	0.956	0.894	0.934	0.945
NCI-H1944	0.923	0.927	0.932	0.734
NCI-H1975	1.05	0.889	1.1	1.03
NCI-H1993	1.09	0.968	1.19	0.812
NCI-H2009	0.951	0.786	0.924	0.731
NCI-H2023	1.15	0.89	1.07	0.425
NCI-H2085	1.06	0.972	1.04	0.895
NCI-H2087	1.12	–	0.927	0.4
NCI-H2126	1.02	0.997	1.07	1
NCI-H2170	1	0.875	0.943	0.782
NCI-H2228	1.17	0.736	0.941	0.714
NCI-H2347	1.11	0.964	1.01	0.944
NCI-H2405	1.12	0.89	1.06	0.74
NCI-H3122	0.994	1.01	0.977	0.881
PC-3 [JPC-3]	1.15	0.973	1.09	–
PC-14	1.07	0.928	1.05	–
RERF-LC-KJ	1.01	0.903	0.976	0.941
SK-LU-1	1.15	0.876	0.92	0.655
SK-MES-1	1.04	0.936	0.997	0.752
SW 900	0.996	0.781	1.13	0.865
SW 1573	1.03	0.98	0.877	0.456
UMC-11	1.03	0.907	0.917	0.648
